# Measurements: patent US8053439B2, “Benzophenone derivatives useful for inhibiting formation of microtubule” (Chong Kun Dang Pharmaceutical Corp., priority 2006, dated 2011)
# Tested on: HL60 cells
# Assay: Inhibition effect of HL60 cell line growth (MTT, 3 days)
# Format: cell-based
# Details: Homo sapiens, HL-60, 72 h, read-out: HL60 Growth Inhibition
# Description: 1. Inhibition Effect of HL60 Cell Line Growth
# A 10% FBS-contained RPMI1640 badge was used for culturing HL60 cells. The test substance was prepared by dissolving in DMSO to a concentration of 10 mg/ml, and continuously diluting with PBS to a final concentration of 100 μg/ml to 0.03 μg/ml. In a 96-well microplate, 180 μl of the badge containing 6.0×10^4 cells/ml of cells and 20 μl of continuously diluted test substance were added. The mixture was cultured at 37° C. with 5% CO2 atmosphere for 3 days. After completion of the cultivation, 50 μl of a solution of 1.25 mg/ml MTT (3-(4,5-dimethylthiazol-2-yl)-2,5-diphenyltetrazolium bromide) dissolved in PBS was added to all wells, and the resulting mixture was reacted at 37° C. for 3 hours. Thus formed formazan crystals were dissolved in 150 μl of DMSO, and an absorbance was measured at 570 nm.
row,SMILES,IC50
1,"COc1cc(C(=O)c2cc(-c3nccs3)ccc2N)cc(OC)c1OC [Compound 278, (2-amino-5-(thiazol-2-yl)phenyl)(3,4,5-trimethoxyphenyl)methanone]",30 nM
2,"COc1cc(C(=O)c2ccc(-c3cscn3)cc2-n2cncn2)cc(OC)c1OC [Compound 562, (4-(thiazol-4-yl)-2-(1H-1,2,4-triazol-1-yl)phenyl)(3,4,5-trimethoxyphenyl)methanone]",80 nM
3,"COc1ccc(-c2cccnc2)cc1C(=O)c1cc(OC)c(OC)c(OC)c1 [Compound 200, (2-methoxy-5-(pyridin-3-yl)phenyl)(3,4,5-trimethoxyphenyl)methanone]",130 nM

# Same assay, conditions: Homo sapiens, HL-60, 72 h; HL60 cells, 3 days culture, MTT, absorbance 570 nm; read-out: HL60 Growth Inhibition
row,IC50,SMILES
1,25 nM,"CCS(=O)(=O)c1cccc(-c2ccc(C(=O)c3cc(OC)c(OC)c(OC)c3)c(-n3cncn3)c2)c1 [Compound 479, (3′-ethanesulfonyl-3-[1,2,4]triazol-1-yl-biphenyl-4-yl)(3,4,5-trimethoxyphenyl)methanone]"
2,170 nM,"COc1cc(C(=O)c2cc(-c3ccco3)ccc2-n2cncn2)cc(OC)c1OC [Compound 322, (5-(furan-2-yl)-2-(1H-1,2,4-triazol-1-yl)phenyl)(3,4,5-trimethoxyphenyl)methanone]"
3,280 nM,"COc1cc(C(=O)c2ccc(-c3nccs3)cc2-n2cncn2)cc(OC)c1OC(F)F [Compound 538, (4-(difluoromethoxy)-3,5-dimethoxyphenyl)(4-(thiazol-2-yl)-2-(1H-1,2,4-triazol-1-yl)phenyl)methanone]"
4,40 nM,COc1cc(C(=O)c2cccc(-c3nccs3)c2)cc(OC)c1OC [Compound 581]
5,3100 nM,"COc1cc(C(=O)c2ccc(-c3cncnc3)cc2-n2cncn2)cc(OC)c1OC [Compound 455, (4-(pyrimidin-5-yl)-2-(1H-1,2,4,-triazol-1-yl)phenyl)(3,4,5-trimethoxyphenyl)methanone]"
6,390 nM,"COc1ccc(-c2ccn[nH]2)cc1C(=O)c1cc(OC)c(OC)c(OC)c1 [Compound 598, (2-methoxy-5-(1H-pyrazol-5-yl)phenyl)(3,4,5-trimethoxyphenyl)methanone]"
7,4240 nM,"COc1cc(C(=O)c2ccc(-c3nccs3)cc2OS(C)(=O)=O)cc(OC)c1OC [Compound 484, methanesulfonic acid 5-(thiazol-2-yl)-2-(3,4,5-trimethoxybenzoyl)phenyl ester]"
8,160 nM,"COc1cc(C(=O)c2ccc(-c3cccc(C#N)c3)cc2-n2cncn2)cc(OC)c1OC [Compound 506, 3′-[1,2,4]triazol-1-yl-4′-(3,4,5-trimethoxybenzoyl)-biphenyl-3-carbonitrile]"
9,100 nM,"COc1cc(C(=O)c2cc(-c3ncco3)ccc2-n2cncn2)cc(OC)c1OC [Compound 359, (5-(oxazol-2-yl)-2-(H-1,2,4-triazol-1-yl)phenyl)(3,4,5-trimethoxyphenyl)methanone]"
10,190 nM,"COc1cc(C(=O)c2cc(-c3nccs3)ccc2NS(C)(=O)=O)cc(OC)c1OC [Compound 308, N-(4-(thiazol-2-yl)-2-(3,4,5-trimethoxybenzoyl)phenyl)methanesulfonamide]"
11,170 nM,"COc1cc(C(=O)c2ccc(-c3ncco3)cc2-n2cncn2)cc(OC)c1OC [Compound 602, (4-(oxazol-2-yl)-2-(1H-1,2,4-triazol-1-yl)phenyl)(3,4,5-trimethoxyphenyl)methanone]"
12,25000 nM,"Nc1nc(-c2ccc(C(=O)c3ccccc3)c(-n3cncn3)c2)cs1 [Compound 519, (4-(2-aminothiazol-4-yl)-2-(1H-1,24-triazol-1-yl)phenyl)(phenyl)methanone]"
13,140 nM,"COc1cc(C(=O)c2cc(-c3nccs3)ccc2NC=O)cc(OC)c1OC [Compound 316, N-(4-(thiazol-2-yl)-2-(3,4,5-trimethoxybenzoyl)phenyl)formamide]"
14,220 nM,"COc1cc(C(=O)c2cc(-c3ccc[nH]3)ccc2N)cc(OC)c1OC [Compound 597, (2-amino-5-(1H-pyrrol-2-yl)phenyl)(3,4,5-trimethoxyphenyl)methanone]"
15,170 nM,"COc1cc(C(=O)c2cc(-c3ccco3)ccc2NCCO)cc(OC)c1OC [Compound 323, (5-(furan-2-yl)-2-(2-hydroxyethylamino)phenyl)(3,4,5-trimethoxyphenyl)methanone]"
16,280 nM,"COc1cc(C(=O)c2cc(-c3ccco3)ccc2NS(C)(=O)=O)cc(OC)c1OC [Compound 235, N-(4-(furan-2-yl)-2-(3,4,5-trimethoxybenzoyl)phenyl)methanesulfonamide]"
